Earlier results, collected in patent publication US20050100563A1, “Antifungal compositions and methods of treatment therewith” (priority 2001, published 2005).

Conditions: in water; stated in parentheses, no measurement described

In the case of `[O]=[Sn]([F])[F]` [stannic oxyfluoride], the solubility is listed as “approximately 0.3%”.
